In publication PMC9172283 (Antiviral Research, 2022):

Assays:
SARS-CoV-2 [1] = experiment: Time-of-addition experiments with SARS-CoV-2 in Vero E6 cells; format: cell-based; conditions: 50 μM, added at +4 h p.i.
SARS-CoV-2 [2] = experiment: Plaque reduction assay; format: cell-based, SARS-CoV-2/NL/2020 strain; conditions: ratio between CC50 and EC50; SARS-CoV-2, Vero E6 cells
[3] = test system: SARS-CoV-2 M^pro (NanoLuc-nsp4-M^pro fusion protein); format: cell-based
[4] = MTT cell viability assay in Vero E6 cells; format: cell-based; conditions: African green monkey
SARS-CoV-2 M^pro = SARS-CoV-2 M^pro (Severe acute respiratory syndrome coronavirus 2, UniProt P0DTD1); experiment: FRET-based SARS-CoV-2 M^pro activity assay in vitro; format: biochemical; conditions: for Fold increase of inhibitory potency against M^pro compared to parental hit 7: compared to hit 7
SARS-CoV-2 [5] = experiment: Virus yield reduction assay of SARS-CoV-2 in Calu-3 cells; format: cell-based; conditions: MOI 0.01, 36 h p.i., titration on Vero E6

Row | SMILES | Time-of-addition: effect of addition at 4 h p.i. (SARS-CoV-2 [1]) | SI, Selectivity Index (SARS-CoV-2 [2]) | Inhibition of proteolytic cleavage of NanoLuc-nsp4-M^pro in cells [3] | CC50 at 72 h [4] [µM] | IC50 (SARS-CoV-2 M^pro) [µM] | Fold increase of inhibitory potency against M^pro compared to parental hit 7 (SARS-CoV-2 M^pro) [fold] | SARS-CoV-2 titers in supernatants of infected and treated Calu-3 cells (SARS-CoV-2 [5])
1 | CC(C)[C@H](NC(=O)c1ccccc1NC(=O)c1ccccc1)C(=O)N[C@H](CO)C(C)C [Compound 36, 2-Benzamido-N-((S)-1-(((S)-1-hydroxy-3-methylbutan-2-yl)amino)-3-methyl-1-oxobutan-2-yl)benzamide] | still exerted an antiviral effect | >192 | dose-dependent inhibition of the proteolytic cleavage | > 250 | 42.9 ± 8.3 | > 2 | confirmed active
2 | CC(C)[C@H](NC(=O)c1ccccc1NC(=O)c1ccccn1)C(=O)N[C@H](CO)C(C)C [Compound 37, N-(2-(((S)-1-(((S)-1-Hydroxy-3-methylbutan-2-yl)amino)-3-methyl-1-oxobutan-2-yl)carbamoyl)phenyl)picolinamide] | still exerted an antiviral effect | >119 | dose-dependent inhibition of the proteolytic cleavage | > 250 | 41.3 ± 7.6 | > 2 | confirmed active
